pIC50: −log10 of the molar value.
How the values were obtained:
[1] = biological target: T1, Recombinant STAT3 protein (STAT3(G127-I722)) (Homo sapiens, UniProt P40763); experiment: STAT3 Fluorescence Polarization (FP) Assay; format: binding; conditions: STAT3(G127-I722) 25 nM, probe 5-FAM-GpYLPQTV-NH2 2 nM, 45-minute incubation
T1 construct: Recombinant STAT3 protein (STAT3(G127-I722))
Method in brief: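 Fluorescence polarization after a 45-min room-temperature incubation measured compound displacement of a 2 nM fluorescein-labelled phosphotyrosine peptide (5-FAM-GpYLPQTV-NH2) from 25 nM recombinant STAT3(G127-I722). Buffer was 10 mM HEPES pH 7.4 with 1% DMSO final. IC50s were fitted by nonlinear regression of mP against log concentration.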

[2] = biological target: T2, Recombinant STAT6 protein (STAT6(W123-T658)) (Homo sapiens, UniProt P42226); experiment: STAT6 Fluorescence Polarization (FP) Assay; format: binding; conditions: STAT6(W123-T658) 250 nM, probe 5-FAM-ApYKPFQDLI-NH2 2 nM, 45-minute incubation
T2 construct: Recombinant STAT6 protein (STAT6(W123-T658))
T2 sequence (P42226 123-658): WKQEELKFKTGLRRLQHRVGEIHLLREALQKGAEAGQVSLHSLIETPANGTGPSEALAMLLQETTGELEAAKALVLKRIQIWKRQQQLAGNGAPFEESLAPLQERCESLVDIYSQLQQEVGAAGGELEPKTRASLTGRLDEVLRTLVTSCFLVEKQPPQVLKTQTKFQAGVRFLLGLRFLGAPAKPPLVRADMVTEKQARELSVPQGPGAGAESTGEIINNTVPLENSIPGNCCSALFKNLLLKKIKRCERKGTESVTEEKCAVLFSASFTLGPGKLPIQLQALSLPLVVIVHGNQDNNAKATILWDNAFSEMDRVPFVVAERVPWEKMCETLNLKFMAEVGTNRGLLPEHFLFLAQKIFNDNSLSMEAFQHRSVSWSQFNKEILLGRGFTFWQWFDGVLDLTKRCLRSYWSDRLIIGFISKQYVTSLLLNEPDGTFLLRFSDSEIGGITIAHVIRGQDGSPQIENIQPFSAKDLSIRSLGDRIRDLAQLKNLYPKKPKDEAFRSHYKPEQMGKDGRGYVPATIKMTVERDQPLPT
Method in brief: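 Displacement of a fluorescent phosphotyrosine peptide (5-FAM-ApYKPFQDLI-NH2, 2 nM) from STAT6(W123-T658) (250 nM), 1% DMSO, pH 7.4 HEPES buffer. After 45 min at room temperature, polarization (mP) was plotted versus log compound concentration and fitted by nonlinear regression to give IC50.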

T1 sequence (P40763 127-722): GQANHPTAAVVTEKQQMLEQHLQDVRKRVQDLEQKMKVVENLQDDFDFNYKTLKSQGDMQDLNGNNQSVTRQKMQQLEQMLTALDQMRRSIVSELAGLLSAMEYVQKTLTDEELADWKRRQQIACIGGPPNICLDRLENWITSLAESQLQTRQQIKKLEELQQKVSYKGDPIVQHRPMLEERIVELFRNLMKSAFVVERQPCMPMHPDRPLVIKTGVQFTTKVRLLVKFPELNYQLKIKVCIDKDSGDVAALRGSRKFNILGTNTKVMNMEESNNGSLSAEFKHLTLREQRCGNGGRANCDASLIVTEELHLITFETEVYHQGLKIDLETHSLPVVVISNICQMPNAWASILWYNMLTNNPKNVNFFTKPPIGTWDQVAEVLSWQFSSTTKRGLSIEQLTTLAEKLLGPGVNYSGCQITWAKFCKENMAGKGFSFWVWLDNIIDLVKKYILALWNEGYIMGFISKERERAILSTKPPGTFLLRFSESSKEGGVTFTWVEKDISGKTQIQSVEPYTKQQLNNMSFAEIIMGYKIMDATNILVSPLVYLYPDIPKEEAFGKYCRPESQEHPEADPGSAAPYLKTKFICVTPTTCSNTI

Structure (SMILES)	pIC50 [1]	pIC50 [2]
CC(=O)N1CC[C@H]2CC[C@@H](C(=O)Nc3cc(C)c4[nH]ncc4c3)N2C(=O)[C@@H](NC(=O)c2cc3cc(C(F)(F)P(=O)(O)O)ccc3s2)C1 [Compound 67, ((2-(((5S,8S,10aR)-3-acetyl-8-((7-methyl-1H-indazol-5-yl)carbamoyl)-6-oxodecahydropyrrolo[1,2-a][1,5]diazocin-5-yl)carbamoyl)benzo[b]thiophen-5-yl)difluoromethyl)phosphonic acid]	5.00 to 6.00	5.52 to 6.52
Cc1ccc2onc(C(=O)N3CC[C@H]4CC[C@@H](C(=O)N5C[C@@H](c6ccn(C)c(=O)c6)CC56CC6)N4C(=O)[C@@H](NC(=O)c4ccc5ccc(C(F)(F)P(=O)(O)O)cc5c4)C3)c2c1 [Compound 383, (difluoro(7-(((5S,8S, 10aR)-8-((R)-6-(1-methyl-2-oxo-1,2-dihydropyridin-4-yl)-4-azaspiro[2.4]heptane-4-carbonyl)-3-(5-methylbenzo[d]isoxazole-3-carbonyl)-6-oxodecahydropyrrolo [1,2-a][1,5]diazocin-5-yl)carbamoyl)naphthalen-2-yl)methyl)phosphonic acid]	5.00 to 6.00	≥ 6.52
N#C[C@@H]1CN(C(=O)[C@@H]2CC[C@@H]3CCS(=O)(=O)C[C@H](NC(=O)c4cc5cc(C(F)(F)P(=O)(O)O)ccc5s4)C(=O)N32)C[C@H]1c1ccccc1 (single isomer, unassigned) [Compound 8]	6.00 to 7.00	≥ 6.52
CCN1CC[C@H]2CC[C@@H](C(=O)N3C[C@@H](C#N)[C@H](c4ccccc4)C3)N2C(=O)[C@@H](NC(=O)c2cc3cc([C@H](F)P(=O)(O)O)ccc3s2)C1 (single isomer, unassigned) [Compound 232, ((R or S)-(2-(((5S,8S,10aR)-8-((3S,4R or 3R,4R)-3-cyano-4-phenylpyrrolidine-1-carbonyl)-3-ethyl-6-oxodecahydropyrrolo[1,2-a][1,5]diazocin-5-yl)carbamoyl)benzo[b]thiophen-5-yl)fluoromethyl)phosphonic acid]	6.00 to 7.00	≥ 6.52
CC(=O)N1CC[C@H]2CC[C@@H](C(=O)N(C)c3ccccc3)N2C(=O)[C@@H](NC(=O)c2cc3cc(C(F)(F)P(=O)(O)O)cnc3s2)C1 [Compound 110, ((2-(((5S,8S,10aR)-3-acetyl-8-(methyl(phenyl)carbamoyl)-6-oxodecahydropyrrolo[1,2-a][1,5]diazocin-5-yl)carbamoyl)thieno[2,3-b]pyridin-5-yl)difluoromethyl)phosphonic acid]	5.00 to 6.00	4.52 to 5.52
CC(C)CN1CC[C@H]2CC[C@@H](C(=O)N3C[C@@H](C#N)[C@H](c4ccccc4)C3)N2C(=O)[C@@H](NC(=O)c2cc3cc(C(F)(F)P(=O)(O)O)ccc3s2)C1 (relative stereo) [Compound 279, ((2-(((5S,8S,10aR)-8-((rel-trans)-3-cyano-4-phenylpyrrolidine-1-carbonyl)-3-isobutyl-6-oxodecahydropyrrolo[1,2-a][1,5]diazocin-5-yl)carbamoyl)benzo[b]thiophen-5-yl)difluoromethyl)phosphonic acid]	6.00 to 7.00	≥ 6.52
CC(=O)N1CC[C@H]2CC[C@@H](C(=O)N(C)C3CCCCC3)N2C(=O)[C@@H](NC(=O)c2cc3cc(C(F)(F)P(=O)(O)O)ccc3[nH]2)C1 [Compound 134]	5.00 to 6.00	5.52 to 6.52
O=C(N[C@H]1CCN(C(=O)OCc2ccccc2)C[C@H]2CC[C@@H](C(=O)N3CC(c4cccnc4)C3)N2C1=O)c1cc2cc(C(F)(F)P(=O)(O)O)ccc2s1 [Compound 214, ((2-(((5S,8S,10aR)-2-((benzyloxy)carbonyl)-6-oxo-8-(3-(pyridin-3-yl)azetidine-1-carbonyl)decahydropyrrolo[1,2-a][1,4]diazocin-5-yl)carbamoyl)benzo[b]thiophen-5-yl)difluoromethyl)phosphonic acid]	≥ 7.00	4.52 to 5.52
Cc1ccc2[nH]nc(C(=O)N3CC[C@H]4CC[C@@H](C(=O)N5CC(c6cc[nH]c(=O)c6)CC56CC6)N4C(=O)[C@@H](NC(=O)c4ccc5ccc(C(F)(F)P(=O)(O)O)cc5c4)C3)c2c1 (stereo partly drawn) [Compound 367, (difluoro(7-(((5S,8S, 10aR)-3-(5-methyl-1H-indazole-3-carbonyl)-6-oxo-8-(6-(2-oxo-1,2-dihydropyridin-4-yl)-4-azaspiro[2.4]heptane-4-carbonyl)decahydropyrrolo[1,2-a][1,5]diazocin-5-yl)carbamoyl)naphthalen-2-yl)methyl) phosphonic acid]	5.00 to 6.00	≥ 6.52

Continued, values first:

pIC50 [1]	pIC50 [2]	Structure (SMILES)
6.00 to 7.00	5.52 to 6.52	CC(=O)N1CC[C@H]2CC[C@@H](C(=O)N[C@H]3CN(C(C)=O)C[C@@H]3O)N2C(=O)[C@@H](NC(=O)c2cc3cc(C(F)(F)P(=O)(O)O)ccc3s2)C1 [Compound 182, ((2-(((5S,8S,10aR)-3-acetyl-8-(((3S,4S)-1-acetyl-4-hydroxypyrrolidin-3-yl)carbamoyl)-6-oxodecahydropyrrolo[1,2-a][1,5]diazocin-5-yl)carbamoyl)benzo[b]thiophen-5-yl)difluoromethyl)phosphonic acid]
5.00 to 6.00	5.52 to 6.52	CC(=O)N1CC[C@H]2CC[C@@H](C(=O)N(C)CC(C)C#N)N2C(=O)[C@@H](NC(=O)c2cc3cc(C(F)(F)P(=O)(O)O)ccc3s2)C1 (stereo partly drawn) [Compound 89, ((2-(((5S,8S,10aR)-3-acetyl-8-((2-cyanopropyl)(methyl)carbamoyl)-6-oxodecahydropyrrolo[1,2-a][1,5]diazocin-5-yl)carbamoyl)benzo[b]thiophen-5-yl)difluoromethyl)phosphonic acid]
5.00 to 6.00	5.52 to 6.52	CC(=O)N1CC[C@H]2CC[C@@H](C(=O)N3CC(c4cn[nH]c4)[C@@H](C#N)C3)N2C(=O)[C@@H](NC(=O)c2cc3cc(C(F)(F)P(=O)(O)O)ccc3s2)C1 (relative stereo) [Compound 141, ((2-(((5S,8S,10aR)-3-acetyl-8-((rel-trans)-3-cyano-4-(1H-pyrazol-4-yl)pyrrolidine-1-carbonyl)-6-oxodecahydropyrrolo[1,2-a][1,5]diazocin-5-yl)carbamoyl)benzo[b]thiophen-5-yl)difluoromethyl)phosphonic acid]
6.00 to 7.00	5.52 to 6.52	CC(=O)Nc1ccn(C2CCN(C(=O)[C@@H]3CC[C@@H]4CCN(C(C)=O)C[C@H](NC(=O)c5cc6cc(C(F)(F)P(=O)(O)O)ccc6s5)C(=O)N43)C2)n1 (stereo partly drawn) [Compound 84, ((2-(((5S,8S,10aR)-8-(3-(3-acetamido-1H-pyrazol-1-yl)pyrrolidine-1-carbonyl)-3-acetyl-6-oxodecahydropyrrolo[1,2-a][1,5]diazocin-5-yl)carbamoyl)benzo[b]thiophen-5-yl)difluoromethyl)phosphonic acid]
5.00 to 6.00	5.52 to 6.52	CC(=O)N1CC[C@H]2CC[C@@H](C(=O)N(C)C3CCN(S(C)(=O)=O)CC3)N2C(=O)[C@@H](NC(=O)c2cc3cc(C(F)(F)P(=O)(O)O)ccc3s2)C1 [Compound 93, ((2-(((5S,8S,10aR)-3-acetyl-8-(methyl(1-(methylsulfonyl)piperidin-4-yl)carbamoyl)-6-oxodecahydropyrrolo[1,2-a][1,5]diazocin-5-yl)carbamoyl)benzo[b]thiophen-5-yl)difluoromethyl)phosphonic acid]
≥ 7.00	4.52 to 5.52	CC(=O)N1CC[C@H](NC(=O)c2cc3cc(C(F)(F)P(=O)(O)O)ccc3s2)C(=O)N2[C@H](CC[C@H]2C(=O)N2CC(c3cccnc3)C2)C1 [Compound 40, ((2-(((5S,8S,10aR)-2-acetyl-6-oxo-8-(3-(pyridin-3-yl)azetidine-1-carbonyl)decahydropyrrolo[1,2-a][1,4]diazocin-5-yl)carbamoyl)benzo[b]thiophen-5-yl)difluoromethyl)phosphonic acid]
6.00 to 7.00	5.52 to 6.52	C[C@@H](CC(=O)N1CC[C@H]2CC[C@@H](C(=O)N3CCCC3)N2C(=O)[C@@H](NC(=O)c2cc3cc(C(F)(F)P(=O)(O)O)ccc3s2)C1)c1ccccc1 [Compound 261, (difluoro(2-(((5S,8S,10aR)-6-oxo-3-((S)-3-phenylbutanoyl)-8-(pyrrolidine-1-carbonyl)decahydropyrrolo[1,2-a][1,5]diazocin-5-yl)carbamoyl)benzo[b]thiophen-5-yl)methyl)phosphonic acid]
5.00 to 6.00	4.52 to 5.52	COC1CCN(C2CCN(C(=O)[C@@H]3CC[C@@H]4CCN(C(C)=O)C[C@H](NC(=O)c5cc6cc(C(F)(F)P(=O)(O)O)ccc6s5)C(=O)N43)C2)CC1 (stereo partly drawn) [Compound 83, ((2-(((5S,8S,10aR)-3-acetyl-8-(3-(4-methoxypiperidin-1-yl)pyrrolidine-1-carbonyl)-6-oxodecahydropyrrolo[1,2-a][1,5]diazocin-5-yl)carbamoyl)benzo[b]thiophen-5-yl)difluoromethyl)phosphonic acid]
